# Experimental data from patent US20130244255A1, “ANTIBODIES DIRECTED TO GPNMB AND USES THEREOF” (priority 2006, published 2013).
# “Also recorded” adds a separate entry of the source. Where a name gives a salt, the structure may show the parent alone. Where a SMILES comes first, the peptide text is derived from it. [ ]: non-standard residue; d: D form. The star is where a group is joined. Dolaproine = CO[C@@H]([C@@H]1CCCN1)[C@@H](C)C(=O)O; Dil = CC[C@H](C)[C@H](NC)[C@@H](CC(=O)O)OC; X1 = C[C@@H](N*)[C@@H](O)c1ccccc1; NMeV = CN[C@H](C(=O)O)C(C)C
# How the values were obtained:
# [1] = system: UACC-62; test: Anti-GPNMB antibody mediated indirect cell killing (saporin secondary conjugate, colony count); type: cell-based, human; conditions: 5-FU 600 uM; antibodies with saporin toxin-conjugated secondary antibody
# Description: UACC-62, a GPNMB antigen expressing cell line, and TK10, a non-expressing cell line were plated onto flat bottom 96-well tissue culture plates (Becton Dickinson, Franklin Lakes, N.J., USA) at a density of 3000 cells per well. Once the cells reached ˜25% confluency, 100 ng/well of secondary antibody-toxin conjugate (goat anti-human IgG-saporin; Advanced Targeting Systems, San Diego, USA, HUM-ZAP; cat #IT-22) was added. Anti-GPNMB MAbs 2.10.2, 2.22.1, 1.15.1 or isotype control mAb (pK16.3) were added to each well at a final concentration of 10 or 50 μg/mL. An anti-EGFR monoclonal antibody (MS-269-PABX, NeoMarkers, Fremont, Calif., USA) was used as a positive primary antibody control. Chemotherapy reagent 5-FU at 600 uM was used as a positive reagent control. On day 5, the cells were trypsinized, transferred to 6-well tissue culture plates and incubated at 37° C. Plates were examined daily and between 8-10 days, all plates were Giemsa stained and colonies were counted.
# [2] = system: SK-MEL-2 human melanoma xenograft; test: SK-MEL-2 human melanoma xenograft in athymic mice; type: in vivo
# Description: Five- to 6-week old athymic mice (CD-1 nu/nu females), used for human tumor xenografts, were obtained from Harlan Laboratories (Indianapolis, Ind.). Animals were housed in specific pathogen-free conditions, according to the guidelines of the Association for Assessment and Accreditation of Laboratory Animal Care International (AAALAC International). Test animals were provided pelleted food and water ad libitum and kept in a room with conditioned ventilation (HVAC), temperature (22°±2° C.), relative humidity (55%±15%), and photoperiod (12 hr). All studies were carried out with approved institutional animal care and use protocols.
# (§1) The tumor inhibitory activity of the CR011-MMAE immunoconjugate was measured in an anti-tumor xenograft model using athymic mice, according to published methods (see Geran et al., Cancer Chemother. Rep. 3:1-104 (1972)). […] When tumors became established (10-20 days), the animals were pair-matched into groups (n=6 mice/group), and treatment was administered by intravenous injection (tail vein).
# (§2) The SK-MEL-2 human melanoma (ATCC #HTB-68) was derived from a metastatic site (skin of thigh) of a person with malignant melanoma, and the SK− MEL-5 human melanoma (ATCC #HTB-70) was derived from a metastatic site (axillary lymph node) of a person with malignant melanoma (see Fogh et al., J. Natl. Cancer Inst. 59: 221-226 (1977)). Both cell lines were obtained from the American Type Culture Collection.
# (§3) The effects of treatment were monitored by repetitive tumor measurements across 2 diameters with Vernier calipers; tumor size (in mg) was calculated using a standard formula, (W^2×L)/2, assuming a specific gravity of 1.0. Tumor size and body weights were assessed twice weekly. Mice were examined daily, however, and moribund animals were humanely euthanized if clinical indications of excessive pain or distress were noted (i.e., prostration, hunched posture, paralysis/paresis, distended abdomen, ulcerations, abscesses, seizures, and/or hemorrhages) Animals with tumors exceeding 2,000 mg were removed from the study and euthanized humanely.
# No apparent or statistically significant anti-tumor effects were observed. […] In preliminary studies, tumor regression was complete and was not followed by regrowth of the tumor despite lengthy observation periods (up to 200 days).
# [3] = system: SK-MEL-5 human melanoma xenograft; test: SK-MEL-5 human melanoma xenograft in athymic mice; type: in vivo
# Description: as §1, §2, §3
# Soon after the commencement of treatment with paclitaxel, however, significant tumor growth inhibition was observed (P≦0.039) at day 3 after treatment began, and this anti-tumor effect continued, producing 100% growth inhibition (stasis). The responses of SK-MEL-5-bearing test animals to vinblastine and paclitaxel were short-lived. After cessation of treatment at the maximally tolerated doses, tumors resumed rapid, progressive growth.
# [4] = molecular target: T1, CG56972/GPNMB (Homo sapiens, UniProt Q14956); test: FACS binding of CR011 IgG1 and IgG2 on SK-MEL-2 cells
# T1 construct: endogenous in cells; host or cells: UACC-62 and a panel of melanoma lines (A5); SK-MEL-2 (A52); SK-Mel-5 (A63)
# T1 sequence (Q14956 23-572): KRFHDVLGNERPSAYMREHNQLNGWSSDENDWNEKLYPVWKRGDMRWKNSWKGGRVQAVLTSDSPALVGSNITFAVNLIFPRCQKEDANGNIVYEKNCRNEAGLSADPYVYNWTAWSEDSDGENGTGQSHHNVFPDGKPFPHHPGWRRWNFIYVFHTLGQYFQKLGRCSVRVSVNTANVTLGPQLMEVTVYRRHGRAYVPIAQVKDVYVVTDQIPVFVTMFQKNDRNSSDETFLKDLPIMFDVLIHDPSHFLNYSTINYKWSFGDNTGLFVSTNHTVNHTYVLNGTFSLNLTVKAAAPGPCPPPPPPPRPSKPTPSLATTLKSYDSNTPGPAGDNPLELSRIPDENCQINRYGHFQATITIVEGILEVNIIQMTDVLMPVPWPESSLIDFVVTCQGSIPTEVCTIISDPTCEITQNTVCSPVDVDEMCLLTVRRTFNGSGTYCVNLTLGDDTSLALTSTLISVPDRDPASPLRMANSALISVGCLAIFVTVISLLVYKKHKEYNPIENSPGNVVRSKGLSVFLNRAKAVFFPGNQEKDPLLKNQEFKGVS
# [5] = system: SK-Mel-2 cells; test: ADCC assay with human PBMC (DELFIA EuTDA cytotoxicity); type: cell-based; conditions: 30 to 100 fold PBMC; 2, 5, 10 μg/200 μl mAb
# Description: Human PBMC were isolated from whole blood using a Ficoll-Plaque. Briefly, in a 50 mL tube, 15 mL of PBS was added to 20 mL of whole blood which was underlayed with 10 mL Ficoll-Plaque and the tube was centrifuged at 2000 RPM. Mononuclear cells were collected from the interface and washed 3 times with PBS. The ADCC assay was carried out in a 96 well plate using a fluorescence assay for cytolysis from Perkin-Elmer (DELFIAEuTDA Cytotoxic assay). The procedure is based on loading target cells with a fluorescence enhancing ligand (BATDA, bis (acetoxymethyl) terpyridine—dicarboxylate). The hydrophic ligand penetrates the membrane quickly. Within the cell the esterbonds are hydrolyzed to form a hydrophilic ligand (TDA, terpyridine—dicarboxylic acid) which can no longer pass through the membrane. After cytolysis the ligand is released and introduced to the Europium solution. The europium and the ligand form a highly fluorescent and stable chelate (EuTDA). Fluorescence intensity are recorded using excitation and emission wavelengths as λex=340 nm and λem=613 nm, respectively.
compound,measurement,setting,value
O=c1[nH]cc(F)c(=O)[nH]1 [Mab 5-FU],effect on UACC-62 cells (in words),[1],complete killing
"CC(=O)O[C@H]1C(=O)[C@@]2(C)[C@H]([C@H](OC(=O)c3ccccc3)[C@]3(O)C[C@H](OC(=O)[C@H](O)[C@@H](NC(=O)c4ccccc4)c4ccccc4)C(C)=C1C3(C)C)[C@]1(OC(C)=O)CO[C@@H]1C[C@@H]2O [Paclitaxel, paclitaxel, reference compound]",growth inhibition (tumor stasis),"[2]; paclitaxel i.v. 24 mg/kg q2d×4, for approximately 2 weeks after treatment commenced",100%
same,growth inhibition (stasis),[3]; paclitaxel 24 mg/kg i.v. q2d×4,100%
same,"long-term, tumor-free survivor",[3]; paclitaxel group,One
"CC[C@]1(O)C[C@@H]2CN(CCc3c([nH]c4ccccc34)[C@@](C(=O)OC)(c3cc4c(cc3OC)N(C)[C@H]3[C@@](O)(C(=O)OC)[C@H](OC(C)=O)[C@]5(CC)C=CCN6CC[C@]43[C@@H]65)C2)C1 [Vinblastine, vinblastine sulfate, reference compound]",anti-tumor effect (in words),"[2]; i.v., CR011-vcMMAE 20, 10, 5 or 2.5 mg/kg q4d×4, vinblastine […] q4d×4","very slight, but not significant, anti-tumor effect"
same,anti-tumor effect (in words),"[3]; i.v., CR011-vcMMAE 1.25 to 20 mg/kg q4d×4, vinblastine […] q4d×4","noticeable, but not significant tumor growth inhibition"
"CC[C@H](C)[C@@H]([C@@H](CC(=O)N1CCC[C@H]1[C@H](OC)[C@@H](C)C(=O)N[C@H](C)[C@@H](O)c1ccccc1)OC)N(C)C(=O)[C@@H](NC(=O)[C@@H](NC)C(C)C)C(C)C [monomethylauristatin E, reference compound] (H-[NMeV]V[Dil][Dolaproine]-X1)",tumor growth inhibition by components of the immunoconjugate (in words),[2]; doses identical to that contained in the intact immunoconjugate (5 mg/kg q4d×4),lack of responses; also recorded: lack of tumor growth inhibition
CR011 IgG1 mAb: CR011 mAb 1.15.1 switched to IgG1 constant region; heavy chain SEQ ID NO: 395,FACS shift on SK-MEL-2 cells vs isotype control mAbs,[4],comparable FACS shifts
same,cytolysis of SK-MEL-2 cells (ADCC),[5],caused cytolysis of SK-MEL-2 cells in a dose dependent manner
